Measurements: US8399520B2, “Selective estrogen receptor modulator” (Eisai R&D Management Co., Ltd., priority 2002, dated 2013)

Experiments:
[1] = tested on: MCF-7 breast cancer cells; experiment: MCF-7 growth analysis (estrogen agonist and antagonist activity, MTT assay); format: cell-based; details: Homo sapiens; for activity at 0.1 µM: MCF7, MCF-7, 72 hours, growth rate of diluent control = 100, of 17β-estradiol (1 nM) = 200, read-out: Agonist activity: growth rate (100 nM test compound); for IC50: MCF7, MCF-7 growth with 17β-estradiol (10 pM) present simultaneously, 72 hours
Method: Test Example 2 determines the estrogen agonist and antagonist activities of the compound according to the present invention in reproduction system cells. […] The present test was carried out according to the following procedures. MCF-7 breast cancer cells were cultured in the preservation medium until the compound evaluation. The preservation medium is the MEM (minimum essential medium, phenol red-free, Gibco, ##51200-038) supplemented with 10% (volume/volume) fetal bovine serum (FBS), 2 mM L-glutamine, 1 mM sodium pyruvate, non-essential amino acids (0.1 mM, Gibco, #15240-062), and antibiotic-antimycotic solution ( 1/50 of culture medium volume, Gibco). Five days prior to analysis, the preservation medium was exchanged with analytical medium to which 10% charcoal-stripped fetal bovine serum (charcoal-FBS) was added instead of 10% FBS, so as to deprive the MCF-7 cells of endogenous steroids. Twenty-four hours after exchange to the analytical medium, the MCF-7 cells were removed from the preservation flask using cell isolation medium (trypsin-EDTA solution, Gibco). The cells were washed with analytical medium once, and cell suspension at 50,000 cell/ml was prepared using the analytical medium. The prepared cell suspension was added to a 96 well flat-bottomed microculture at […] (5,000 cells) per well, the cells were cultured in a 5% CO2 incubator for 24 hours at 37° C., to equilibrate the cells after cell transfer. […] The cells were further cultured in the 5% CO2 incubator for 72 hours at 37° C. After culturing, the cell growth was examined by the MTT assay. MTT assay was carried out as the following protocols. MTT solution at 8 mg/ml (MTT dissolved in phosphate saline water buffer) was added to the microculture at 10 μl/well, and the cells were cultured in the 5% CO2 incubator for 30 minutes at 37° C. Thereafter, resulting from the reduction of MTT by the cells, formazan crystals were dissolved by adding a dissolution buffer (400 g/l of an aqueous solution of SDS (50%) and dimethylformamide (50%)) to the microculture at 100 μl/well, and incubated the microculture for more than 4 hours in the dark. For each well of the microculture, the optical density at 590 nm due to the dissolved formazan crystals was measured.

[2] = tested on: ovariectomized rats; experiment: Bone resorption in ovariectomized rats: deoxypyridinoline in urine; format: in vivo, rat; details: for Deoxypyridinoline, 5 weeks / Deoxypyridinoline, 8 weeks: OVX rats, 10 mg/kg orally once a day Monday to Friday, urine; for Effect on excretion of deoxypyridinoline in urine (in words): ovariectomized rats, after 5 and 8 weeks administrations
Text: (§1) Ten weeks old Female Fischer rats (F344/N, Japan SLC, Shizuoka, Japan) were used. Rats were grouped to eliminate the effect of body weight between each group and housed with free access to food and water. Animals were anesthetized with Nembutal (Abbott Laboratories, Chicago, Ill.) and the ovaries were removed. In sham-operated group, ovaries were only touched with tweezers. Administration of compounds was started one day after the operation.
(§2) Estradiol (Sigma-Aldrich, St. Louis, Mo.) was dissolved in DMSO to 150 mg/mL then diluted with sesame oil to 0.15 mg/mL. The compounds in Examples 736 and 814, and Raloxifene were suspended in sesame oil to 5, 5 and 1.5 mg/mL, respectively. Samples were divided into aliquots for daily administration and preserved at −18° C. until use.
(§3) The samples were orally administered at 2 mL/kg. Administration was carried out once a day from Monday to Friday for 8 weeks.
Urine was gathered overnight (17 hours) using the metabolic cage under fasting. The amount of urinary deoxypyridinoline was measured with ELISA kit, Osteorincs-DPD (Sumitomo Seiyaku Biomedical Co., Ltd., Osaka, Japan) and evaluated as total amount produced in 17 hours or as the amount per 1 mg of creatinine.

[3] = tested on: ovariectomized rats; experiment: Ovariectomized rats: uterus wet weight; format: in vivo, rat; details: rat, in vivo
Text: as §1, §2, §3
After animals were sacrificed by decapitation, uterus was removed and adipose tissue and vagina was separated from uterus prior to uterus weight measurement.

[4] = tested on: ovariectomized rats; experiment: Ovariectomized rats: bone density of femur and fifth lumbar vertebrae; format: in vivo, rat; details: for Bone Mineral Density, Distal femur / Bone Mineral Density, Lumber 5 / Bone Mineral Density, Whole femur: OVX rats, 10 mg/kg orally, 8 weeks; for Effect on bone mineral density of femur and fifth lumbar vertebrae (in words): ovariectomized rats, eight weeks after ovariectomy, compared with sham-operated rats
Text: as §1, §2, §3
After animals were sacrificed by decapitation, left femur and the fifth lumbar vertebrae were removed. The bone density was measured by using QDR-1000/W (Ho logic Inc., Bedford, Mass.).

[5] = molecular target: T1, estrogen receptor derived from bovine uterus (Bos taurus, UniProt P49884); experiment: In vitro estrogen receptor binding assay; details: read-out: Estrogen receptor binding affinity: Ki
T1 construct: estrogen receptor derived from bovine uterus was diluted with the assay buffer solution so that 10 to 20 μg total protein was present; from tissue; host or cells: bovine uterus
T1 sequence (P49884 1-596): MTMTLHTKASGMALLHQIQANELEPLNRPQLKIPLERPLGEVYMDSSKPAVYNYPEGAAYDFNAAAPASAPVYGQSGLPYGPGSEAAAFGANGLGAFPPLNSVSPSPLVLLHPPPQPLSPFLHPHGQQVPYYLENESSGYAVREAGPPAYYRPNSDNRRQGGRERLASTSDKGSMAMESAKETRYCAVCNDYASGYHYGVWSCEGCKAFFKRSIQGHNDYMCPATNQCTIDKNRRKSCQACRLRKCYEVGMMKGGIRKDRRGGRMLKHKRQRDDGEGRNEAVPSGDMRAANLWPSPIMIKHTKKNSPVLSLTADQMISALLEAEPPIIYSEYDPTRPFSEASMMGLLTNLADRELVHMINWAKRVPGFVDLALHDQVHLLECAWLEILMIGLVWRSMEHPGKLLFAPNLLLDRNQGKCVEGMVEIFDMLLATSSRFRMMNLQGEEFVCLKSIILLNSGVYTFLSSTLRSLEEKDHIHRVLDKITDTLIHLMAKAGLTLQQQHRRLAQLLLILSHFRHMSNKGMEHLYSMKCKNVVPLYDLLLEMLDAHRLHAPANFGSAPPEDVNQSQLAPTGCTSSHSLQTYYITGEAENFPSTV
Method: The binding affinity of the compound according to the present invention to estrogen receptor was measured using an in vitro estrogen receptor binding assay. The binding affinity measures the ability of the compound according to the present invention to remove [^3H]-estradiol from estrogen receptor derived from bovine uterus. The following materials were used in this assay: (1) the assay buffer solution was 20 mM Tris/HCl (pH 7.5) containing 1 mM dithiothreitol (DTT), 1 mM EDTA and 10% glycerol; (2) radioactive ligand was [^3H]-estradiol purchased from Amersham Life Science; (3) the cold ligand was diethylstilbestrol purchased from sigma (Sigma); and (4) the estrogen receptor was derived from bovine uterus. The compound to be tested was prepared as a 10% DMSO solution. [^3H]-estradiol was dissolved in the assay buffer solution so as to obtain a final concentration of 1 nM. […] Each plate contains total binding, non-specific binding and the binding which were not inhibited by various concentrations of the compound. The plate was incubated for 1 hour at room temperature. […] These mixtures were centrifuged, and the supernatant thereof was evaluated for its radioactivity using a liquid scintillation counter. Specific binding was calculated by subtracting non-specific binding dpm (counts remaining in the supernatant obtained by centrifugal separation of a reaction mixture containing estrogen receptor derived from bovine uterus, radioactive ligand and excess cold ligand) from the total binding dpm (counts remaining in the supernatant obtained by centrifugal separation of a reaction mixture containing estrogen receptor derived from bovine uterus and radioactive ligand only). The effectiveness of the compound was evaluated by Ki. […] C is the concentration of [^3H]-estradiol in the reaction mixture, and Kd is the [^3H]-estradiol dissociation constant. The Kd was determined by Scatchard analysis. That is to say, various concentrations of [^3H]-estradiol were used to measure the concentration of specifically bound [^3H]-estradiol, which served as the horizontal axis, the value which was obtained by dividing the concentration of specifically bound [^3H]-estradiol by the concentration [^3H]-estradiol not bound to the receptor served as the vertical axis to produce a plot, and the negative value of the inverse of the slope of the resulting straight line was used as Kd.

| SMILES | activity at 0.1 µM [1] [%] | IC50 [1] [nM] | Deoxypyridinoline, 5 weeks [2] [nM/mg/dl] | Deoxypyridinoline, 8 weeks [2] [nM/mg/dl] | Effect on excretion of deoxypyridinoline in urine (in words) [2] | Effect on uterus wet weight (in words) [3] | Bone Mineral Density, Distal femur [4] [g/cm^2] | Bone Mineral Density, Lumber 5 [4] [g/cm^2] | Bone Mineral Density, Whole femur [4] [g/cm^2] | Effect on bone mineral density of femur and fifth lumbar vertebrae (in words) [4] | Ki [5] [nM] |
| --- | --- | --- | --- | --- | --- | --- | --- | --- | --- | --- | --- |
| COc1ccc([C@@H]2CCc3cc(O)ccc3C2)c(N(CCO)Cc2ccc(OCC(C)(C)N(C)C)cc2)c1 [Example 814, (R)-6-{2-[[4-(2-Dimethylamino-2-methylpropoxy)benzyl](2-hydroxyethyl)amino]-4-methoxyphenyl}-5,6,7,8-tetrahydronaphthalen-2-ol] | 95 | 3.23 | 11.22 ± 1.12 | 15.48 ± 0.98 | significantly attenuated the excretion of deoxypyridinoline | slightly increased uterus wet weight to the same level | 0.248 ± 0.002 | 0.159 ± 0.001 | 0.237 ± 0.002 | preserved bone mineral density at the level in sham-operated rats | 8.4 |
| CCNCCc1ccc(CN(CC)c2cc(OC)ccc2[C@@H]2CCc3cc(O)ccc3C2)cc1 [Example 736, (R)-6-{2-{Ethyl[4-(2-ethylaminoethyl)benzyl]amino}-4-methoxyphenyl}-5,6,7,8-tetrahydronaphthalen-2-ol] | 73 | 0.74 | 10.48 ± 0.52 | 15.33 ± 0.78 | significantly attenuated the excretion of deoxypyridinoline | did not influence the wet weight of the uterus at all | 0.256 ± 0.002 | 0.156 ± 0.003 | 0.241 ± 0.002 | preserved bone mineral density at the level in sham-operated rats | 6 |
